The IC50 is the concentration needed to halve the response being measured. A high value points to weaker potency.

We go through 13 compounds from ChEMBL document CHEMBL3046009, “Synthesis of piperineamino acid ester conjugates and study of their cytotoxic activities against human cancer cell lines” (Med Chem Res, 2012).

Assay type in all cases: functional, cell-based
The test system of one assay is COLO 205. In words: Cytotoxicity against Homo sapiens (human) COLO205 cells by SRB assay. For orientation: In SRB staining, fixed cells bind dye roughly in proportion to their protein.
A further assay deals with MCF7. In words: Cytotoxicity against Homo sapiens (human) MCF7 cells by SRB assay.
A further assay concerns PC-3. In words: Cytotoxicity against Homo sapiens (human) PC3 cells by SRB assay.
A further assay relates to DU-145. Put plainly: Cytotoxicity against Homo sapiens (human) DU145 cells by SRB assay.
The subject of another assay is IMR-32. In words: Cytotoxicity against Homo sapiens (human) IMR32 cells by SRB assay.
A further assay has as its system HEp-2. Put plainly: Cytotoxicity against Homo sapiens (human) Hep2 cells by SRB assay.

SMILES strings stand for the structures. Where a name gives a salt, the structure may show the parent alone.

On to `COC(=O)[C@@H](NC(=O)/C=C/C=C/c1ccc2c(c1)OCO2)C(C)C`, for which the IC50 in the assay with COLO 205 was greater than 50 µM; in the assay on MCF7, 51 µM; in the assay on PC-3, 49 µM; in the assay on DU-145, 44 µM; with IMR-32, greater than 50 µM; in the assay with HEp-2, greater than 50 µM.
Regarding `COC(=O)[C@H](NC(=O)/C=C/C=C/c1ccc2c(c1)OCO2)C(C)C`, the IC50 is 51 µM in the assay with COLO 205; greater than 50 µM in the assay on MCF7; greater than 50 µM in the assay with PC-3; greater than 50 µM in the assay with DU-145; greater than 50 µM in the assay with IMR-32; greater than 50 µM in the assay with HEp-2.
`COC(=O)[C@H](CC(C)C)NC(=O)/C=C/C=C/c1ccc2c(c1)OCO2`: the IC50 in the assay on COLO 205 is 55 µM; in the assay with MCF7, 48 µM; with PC-3 it was greater than 50 µM; in the assay on DU-145 it was greater than 50 µM; in the assay with IMR-32 it was greater than 50 µM; in the assay on HEp-2 it was 43 µM.
In the case of `CC[C@H](C)[C@H](NC(=O)/C=C/C=C/c1ccc2c(c1)OCO2)C(=O)OC`, the IC50 in the assay with COLO 205 was greater than 50 µM; in the assay with MCF7, 48 µM; in the assay with PC-3, greater than 50 µM; with DU-145 it was greater than 50 µM; with IMR-32, greater than 50 µM; in the assay with HEp-2, greater than 50 µM.
On to `COC(=O)[C@H](CO)NC(=O)/C=C/C=C/c1ccc2c(c1)OCO2`, for which the IC50 in the assay with COLO 205 is 36 µM; in the assay with MCF7, greater than 50 µM; in the assay with PC-3, greater than 50 µM; in the assay with DU-145, greater than 50 µM; in the assay with IMR-32, greater than 50 µM; in the assay with HEp-2, greater than 50 µM.
For `COC(=O)C[C@H](NC(=O)/C=C/C=C/c1ccc2c(c1)OCO2)C(=O)OC`, the 50% inhibitory concentration (IC50) with COLO 205 is greater than 50 µM; with MCF7, greater than 50 µM; with PC-3, greater than 50 µM; with DU-145 it was 46 µM; with IMR-32 it was greater than 50 µM; with HEp-2, greater than 50 µM.
As to `COC(=O)[C@H](Cc1cnc[nH]1)NC(=O)/C=C/C=C/c1ccc2c(c1)OCO2`, the IC50 was greater than 50 µM with COLO 205; greater than 50 µM with MCF7; greater than 50 µM in the assay on PC-3; 21 µM in the assay on DU-145; greater than 50 µM in the assay on IMR-32; greater than 50 µM with HEp-2.
For the compound `COC(=O)CNC(=O)/C=C/C=C/c1ccc2c(c1)OCO2`, the IC50 was greater than 50 µM with COLO 205; 44 µM with MCF7; 33 µM in the assay on PC-3; 49 µM with DU-145; 50 µM with IMR-32; greater than 50 µM in the assay with HEp-2.
For `COC(=O)[C@H](C)NC(=O)/C=C/C=C/c1ccc2c(c1)OCO2`, the IC50 with COLO 205 is greater than 50 µM; in the assay with MCF7, greater than 50 µM; in the assay on PC-3, greater than 50 µM; in the assay with DU-145 it was 51 µM; in the assay on IMR-32, greater than 50 µM; with HEp-2, greater than 50 µM.
`COc1cccc2c1C(=O)c1c(O)c3c(c(O)c1C2=O)C[C@@](O)(C(=O)CO)C[C@@H]3O[C@H]1C[C@H](N)[C@H](O)[C@H](C)O1` [DOXORUBICIN HYDROCHLORIDE]: the IC50 came out at 0.8 µM in the assay with MCF7 and 0.02 µM in the assay on IMR-32.
For `O=c1[nH]cc(F)c(=O)[nH]1` [FLUOROURACIL], the concentration for half-maximal inhibition (IC50) in the assay on COLO 205 amounted to 2.9 µM; in the assay on MCF7, 2.9 µM; in the assay with HEp-2, 2 µM.
With `CO[C@@]12[C@H](COC(N)=O)C3=C(C(=O)C(C)=C(N)C3=O)N1C[C@@H]1N[C@@H]12` [MITOMYCIN], the IC50 in the assay on PC-3 turned out to be 1.4 µM; in the assay on DU-145, 1.8 µM.
Take `O=C(/C=C/C=C/c1ccc2c(c1)OCO2)N1CCCCC1` [PIPERINE]: the IC50 with COLO 205 was 46 µM; in the assay with MCF7, 99 µM; with PC-3, greater than 50 µM; in the assay with DU-145 it was greater than 50 µM; in the assay on IMR-32, 89 µM; with HEp-2 it was 70 µM.
